Source: US6737383B1, “Herbicidal oxadiazolidines” (priority 1999, dated 2004)

What was measured:
[1] = tested on: surinam grass; assay: Test B pre/postemergence surinam grass; format: in vivo, Brachiaria decumbens
In short: (§1)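 Herbicidal effect was estimated by eye on a ten-point control scale after plants spent twelve to sixteen days in a greenhouse following soil or foliar treatment. Foliar sprays targeted plants at one to four leaves; all doses were formulated in a non-phytotoxic solvent with surfactant.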

[2] = tested on: rice; assay: Test B flood test rice; format: in vivo, Oryza sativa
Procedure: At the same time, these crop and weed species were also treated with postemergence applications of test chemicals formulated in the same manner. Plants ranged in height from 2 to 18 cm (1- to 4-leaf stage) for postemergence treatments. Plant species in the flood test consisted of rice (Oryza sativa), smallflower flatsedge (Cyperus difformis), duck salad (Heteranthera limosa) and bamyardgrass (Echinochloa crus-galli) grown to the 2-leaf stage for testing. Treated plants and controls were maintained in a greenhouse for twelve to sixteen days, after which all species were compared to controls and visually evaluated. Plant response ratings, summarized in Table B, are based on a scale of 0 to 10 where 0 is no effect and 10 is complete control. A dash (−) response means no test result.

[3] = tested on: giant foxtail; assay: Test B pre/postemergence giant foxtail; format: in vivo, Setaria faberii
In short: as §1

[4] = tested on: sugar beet; assay: Test B pre/postemergence sugar beet; format: in vivo, Beta vulgaris
In short: as §1

[5] = tested on: smallflower flatsedge; assay: Test B flood test smallflower flatsedge; format: in vivo, Cyperus difformis
In short: (§2)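 Each value is a visual injury score relative to controls, with 10 meaning complete control and 0 no effect. Evaluation took place twelve to sixteen days after the 2-leaf-stage plants were treated and kept in the greenhouse.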

[6] = tested on: morningglory; assay: Test B pre/postemergence morningglory; format: in vivo, Ipomoea hederacea
In short: as §1

[7] = tested on: corn; assay: Test B pre/postemergence corn; format: in vivo, Zea mays
In short: as §1

[8] = tested on: cocklebur; assay: Test B pre/postemergence cocklebur; format: in vivo, Xanthium strumarium
In short: as §1

[9] = tested on: soybean; assay: Test B pre/postemergence soybean; format: in vivo, Glycine max
In short: as §1

[10] = tested on: wild oat; assay: Test B pre/postemergence wild oat; format: in vivo, Avena fatua
In short: as §1

[11] = tested on: bamyardgrass; assay: Test B flood test barnyardgrass; format: in vivo, Echinochloa crus-galli
In short: as §2

[12] = tested on: pigweed; assay: Test B pre/postemergence pigweed; format: in vivo, Amaranthus retroflexus
In short: as §1

[13] = tested on: velvetleaf; assay: Test B pre/postemergence velvetleaf; format: in vivo, Abutilon theophrasti
In short: as §1

[14] = tested on: duck salad; assay: Test B flood test duck salad; format: in vivo, Heteranthera limosa
In short: as §2

[15] = tested on: purple nutsedge; assay: Test B pre/postemergence purple nutsedge; format: in vivo, Cyperus rotundus
In short: as §1

[16] = tested on: wheat; assay: Test B pre/postemergence wheat; format: in vivo, Triticum aestivum
In short: as §1

[17] = tested on: crabgrass; assay: Test B pre/postemergence crabgrass; format: in vivo, Digitaria sanguinalis
In short: as §1

[18] = tested on: blackgrass; assay: Test B pre/postemergence blackgrass; format: in vivo, Alopecurus myosuroides
In short: as §1

[19] = tested on: rape; assay: Test B pre/postemergence rape; format: in vivo, Brassica napus
In short: as §1

[20] = Postemergence, Rate 31 g/ha, visual rating, scale 0 to 10 (0 no effect, 10 complete control)
[21] = Postemergence, Rate 62 g/ha, scale 0 to 10, 0 is no effect, 10 is complete control
[22] = Postemergence, Rate 125 g/ha, scale of 0 to 10 where 0 is no effect and 10 is complete control
[23] = Postemergence, Rate 250 g/ha, scale of 0 to 10, 0 is no effect, 10 is complete control
[24] = Preemergence, Rate 31 g/ha, visual rating, scale 0 to 10 (0 no effect, 10 complete control)
[25] = Preemergence, Rate 62 g/ha, scale of 0 to 10 where 0 is no effect and 10 is complete control
[26] = Preemergence, Rate 125 g/ha, scale of 0 to 10 where 0 is no effect and 10 is complete control
[27] = Preemergence, Rate 250 g/ha, scale 0 to 10 (0 no effect, 10 complete control)
[28] = Rate 31 g/ha, Pre-emergence section (flood test species), scale 0 to 10
[29] = Rate 62 g/ha, flood test species, Pre-emergence, visual evaluation after twelve to sixteen days
[30] = Rate 125 g/ha, under heading Pre-emergence, flood test species, visual evaluation after twelve to sixteen days
[31] = Rate 250 g/ha, Pre-emergence (flood test species), scale 0 to 10, 0 is no effect, 10 is complete control
[32] = Rate 125 g/ha, Postemergence section (flood test species), scale 0 to 10, 0 no effect, 10 complete control
[33] = Rate 500 g/ha, listed under Postemergence (flood test species), scale 0 to 10, 0 no effect, 10 complete control
[34] = flood test, listed under Postemergence, Rate 250 g/ha, scale 0 to 10, 0 no effect, 10 complete control

## CCOP(=O)(OCC)C(C)n1c(=O)on(C(=O)N(c2ccc(Cl)cc2)C(C)C)c1=O (stereo not shown) [Compound 644]
[1]; [20]
  B. signalgrass plant response rating: 0
[1]; [21]
  Plant response rating, B. signalgrass: 0
[1]; [22]
  Plant response rating, B. signalgrass: 0
[1]; [23]
  B. signalgrass plant response rating: 0
[1]; [24]
  B. signalgrass plant response rating: 0
[1]; [25]
  B. signalgrass plant response rating: 0
[1]; [26]
  B. signalgrass plant response rating: 0
[1]; [27]
  Plant response rating, B. signalgrass: 2
[2]; [28]
  Rice plant response rating: 0
[2]; [29]
  Plant response rating, Rice (0 to 10 scale, 0 is no effect, 10 is complete control): 0
[2]; [30]
  Rice plant response rating (0 to 10 scale, 0 is no effect, 10 is complete control): 0
[2]; [31]
  Rice plant response rating: 0
[3]; [20]
  Giant foxtail plant response rating: 0
[3]; [21]
  Plant response rating, Giant foxtail: 0
[3]; [22]
  Giant foxtail plant response rating: 0
[3]; [23]
  Giant foxtail plant response rating: 0
[3]; [24]
  Giant foxtail plant response rating: 0
[3]; [25]
  Giant foxtail plant response rating: 0
[3]; [26]
  Giant foxtail plant response rating: 2
[3]; [27]
  Plant response rating, Giant foxtail: 6
[4]; [20]
  Sugarbeets plant response rating: 0
[4]; [21]
  Plant response rating, Sugarbeets: 0
[4]; [22]
  Sugarbeets plant response rating: 0
[4]; [23]
  Sugarbeets plant response rating: 0
[4]; [25]
  Sugarbeets plant response rating: 0
[4]; [26]
  Sugarbeets plant response rating: 0
[4]; [27]
  Plant response rating, Sugarbeets: 0
[5]; [28]
  S. Flatsedge plant response rating: 0
[5]; [29]
  Plant response rating, S. Flatsedge (0 to 10 scale, 0 is no effect, 10 is complete control): 0
[5]; [30]
  S. Flatsedge plant response rating (0 to 10 scale, 0 is no effect, 10 is complete control): 0
[5]; [31]
  S. Flatsedge plant response rating: 0
[6]; [20]
  Morningglory plant response rating: 0
[6]; [21]
  Plant response rating, Morningglory: 0
[6]; [22]
  Morningglory plant response rating: 0
[6]; [23]
  Morningglory plant response rating: 0
[6]; [25]
  Morningglory plant response rating: 0
[6]; [26]
  Morningglory plant response rating: 0
[6]; [27]
  Plant response rating, Morningglory: 3
[7]; [20]
  Corn plant response rating: 0
[7]; [21]
  Plant response rating, Corn: 0
[7]; [22]
  Corn plant response rating: 0
[7]; [23]
  Corn plant response rating: 0
[7]; [24]
  Corn plant response rating: 0
[7]; [25]
  Corn plant response rating: 0
[7]; [26]
  Corn plant response rating: 0
[7]; [27]
  Plant response rating, Corn: 0
[8]; [20]
  Cocklebur plant response rating: 0
[8]; [21]
  Plant response rating, Cocklebur: 0
[8]; [22]
  Cocklebur plant response rating: 0
[8]; [23]
  Cocklebur plant response rating: 0
[8]; [24]
  Cocklebur plant response rating: 0
[8]; [25]
  Cocklebur plant response rating: 0
[8]; [26]
  Cocklebur plant response rating: 0
[8]; [27]
  Plant response rating, Cocklebur: 0
[9]; [20]
  Soybean plant response rating: 0
[9]; [21]
  Plant response rating, Soybean: 0
[9]; [22]
  Soybean plant response rating: 0
[9]; [25]
  Soybean plant response rating: 0
[9]; [26]
  Soybean plant response rating: 0
[9]; [27]
  Plant response rating, Soybean: 0
[10]; [20]
  Wild oats plant response rating: 0
[10]; [21]
  Plant response rating, Wild oats: 0
[10]; [22]
  Wild oats plant response rating: 0
[10]; [23]
  Wild oats plant response rating: 0
[10]; [25]
  Wild oats plant response rating: 0
[10]; [26]
  Wild oats plant response rating: 0
[10]; [27]
  Plant response rating, Wild oats: 0
[11]; [28]
  Barnyardgrass plant response rating: 0
[11]; [29]
  Plant response rating, Barnyardgrass (0 to 10 scale, 0 is no effect, 10 is complete control): 0
[11]; [30]
  Barnyardgrass plant response rating (0 to 10 scale, 0 is no effect, 10 is complete control): 0
[11]; [31]
  Barnyardgrass plant response rating: 0
[12]; [20]
  Redroot pigweed plant response rating: 2
[12]; [21]
  Plant response rating, Redroot pigweed: 2
[12]; [22]
  Redroot pigweed plant response rating: 3
[12]; [23]
  Redroot pigweed plant response rating: 3
[12]; [25]
  Redroot pigweed plant response rating: 0
[12]; [26]
  Redroot pigweed plant response rating: 0
[12]; [27]
  Plant response rating, Redroot pigweed: 0
[13]; [20]
  Velvetleaf plant response rating: 0
[13]; [21]
  Plant response rating, Velvetleaf: 0
[13]; [22]
  Velvetleaf plant response rating: 0
[13]; [23]
  Velvetleaf plant response rating: 0
[13]; [25]
  Velvetleaf plant response rating: 0
[13]; [26]
  Velvetleaf plant response rating: 0
[13]; [27]
  Plant response rating, Velvetleaf: 0
[14]; [28]
  Ducksalad plant response rating: 0
[14]; [29]
  Plant response rating, Ducksalad (0 to 10 scale, 0 is no effect, 10 is complete control): 0
[14]; [30]
  Ducksalad plant response rating (0 to 10 scale, 0 is no effect, 10 is complete control): 0
[14]; [31]
  Ducksalad plant response rating: 0
[15]; [20]
  Nutsedge plant response rating: 0
[15]; [22]
  Nutsedge plant response rating: 0
[15]; [25]
  Nutsedge plant response rating: 0
[15]; [26]
  Nutsedge plant response rating: 0
[16]; [20]
  Wheat plant response rating: 0
[16]; [21]
  Plant response rating, Wheat: 0
[16]; [22]
  Wheat plant response rating: 0
[16]; [23]
  Wheat plant response rating: 0
[16]; [25]
  Wheat plant response rating: 0
[16]; [26]
  Wheat plant response rating: 0
[16]; [27]
  Plant response rating, Wheat: 0
[17]; [20]
  Crabgrass plant response rating: 0
[17]; [21]
  Plant response rating, Crabgrass: 0
[17]; [22]
  Crabgrass plant response rating: 0
[17]; [23]
  Crabgrass plant response rating: 0
[17]; [24]
  Crabgrass plant response rating: 2
[17]; [25]
  Crabgrass plant response rating: 2
[17]; [27]
  Plant response rating, Crabgrass: 3
[18]; [20]
  Blackgrass plant response rating: 0
[18]; [21]
  Plant response rating, Blackgrass: 0
[18]; [22]
  Blackgrass plant response rating: 0
[18]; [23]
  Blackgrass plant response rating: 0
[18]; [24]
  Blackgrass plant response rating: 0
[18]; [25]
  Blackgrass plant response rating: 0
[18]; [26]
  Blackgrass plant response rating: 0
[18]; [27]
  Plant response rating, Blackgrass: 0
[19]; [20]
  Rape plant response rating: 0
[19]; [21]
  Plant response rating, Rape: 0
[19]; [22]
  Rape plant response rating: 0
[19]; [23]
  Rape plant response rating: 0
[19]; [25]
  Rape plant response rating: 0
[19]; [26]
  Rape plant response rating: 0
[19]; [27]
  Plant response rating, Rape: 2

## Cc1ccccc1-n1c(=O)on(C(=O)N(c2ccc(F)cc2F)C2CC2)c1=O [Compound 50]
[2]; [21]
  Rice plant response rating: 0
[2]; [32]
  Rice plant response rating: 0
[2]; [33]
  Rice plant response rating: 0
[2]; [34]
  Rice plant response rating: 0
[5]; [21]
  S. Flatsedge plant response rating: 0
[5]; [32]
  S. Flatsedge plant response rating: 0
[5]; [33]
  S. Flatsedge plant response rating: 0
[5]; [34]
  S. Flatsedge plant response rating: 0
[7]; Rate 125 g/ha, Postemergence, scale 0 to 10, 0 no effect, 10 complete control
  Corn plant response rating: 0
[11]; [21]
  Barnyardgrass plant response rating: 0
[11]; [32]
  Barnyardgrass plant response rating: 0
[11]; [33]
  Barnyardgrass plant response rating: 0
[11]; [34]
  Barnyardgrass plant response rating: 0
[14]; [21]
  Ducksalad plant response rating: 0
[14]; [32]
  Ducksalad plant response rating: 0
[14]; [33]
  Ducksalad plant response rating: 0
[14]; [34]
  Ducksalad plant response rating: 0
